For assay [1], the system named is naïve splenic C57BL/6 B cells. The experiment in a line: Flow cytometry: APC-labeled tetramer staining of C57BL/6 splenic B cells. Format: cell-based, mouse (C57BL/6). The procedure:
(§1) N-biotinylated, linker/spacer-containing peptides used to make tetramers are detailed in Table S4 and Fig. 7A. Peptides were synthesized and purified using reverse-phase HPLC (Primm Biotechnology). To produce tetramerized forms of each peptides, 200 µM peptide and 6 µM APC-labeled streptavadin (SA) were combined at equal volumes, and mixtures were incubated at 4°C for 4 h. Unbound peptide was removed from peptide-APC complexes by centrifugal filtration using an Amicon Centriprep YM30 column (Millipore Corporation). Purified tetramer preparations were determined using the Micro BSA protein assay kit (Pierce Biotechnology).
FACS staining of single cell suspensions (≥2×10^6) was conducted using pre-mixed combinations of fluorochrome-labeled Abs and APC-conjugated B cell tetramers at empirically-determined optimal concentrations. All Abs were from BD unless otherwise stated. Primary antibodies used were: PerCP anti-B220, FITC anti-IgD, FITC, PE or PE-Cy7 anti-IgM, PE anti-CD5, FITC anti-CD11b, PE-Cy7 anti-CD19, FITC anti-CD21, PE-Cy7 anti-CD23 (eBiosciences), and PE-Cy7 anti-CD93 (eBiosciences). Other reagents included biotinylated Abs against dump channel markers: Thy1 (Abcam), F4/80 (Abcam), CD11c, Gr-1, TER-119, and NK-1.1, secondary staining SA-Texas Red conjugate; v-amine live/dead violet dye (Molecular Probes), and Fc block (anti-CD16/32).
Staining was conducted at 4°C in several sequential steps in FACS staining buffer (1X PBS with 2% FCS, 0.1% NaN3), washing twice between steps. Cells were first incubated with v-amine live/dead dye for 15 min, then stained with APC-labeled tetramers for 30 min (and in some experiments, cold tetramer was incubated at 10 fold molar excess for 1 h, prior to staining with APC-labeled tetramers). Cells were then stained with Fc block, followed by incubation with combinations of primary Abs, and secondary staining with SA-Texas Red, each for 30 min. Data (≥2.5×10^5 events/sample) were acquired using an LSRII flow cytometer and Cell Quest software (BD Immunocytometry systems). FACS Analysis was performed using FlowJo software (Tree Star). […]
For orientation: A flow cytometer gives signals particle by particle.

Assay [2] has as its system splenic B cells, BALB/c congenic (CB17) (IgH^b). In words: Flow cytometry: tetramer staining of splenic B cells from BALB/c congenic CB17 (IgH^b) mice. The class given is cell-based, mouse (CB17). Particulars: BALB/c mice homozygous for Igh^b; Fig. 5. The method, then: as §1
Female C57BL/6, BALB/c, B6Igh^a, and CB17 (BALBc Igh^b) inbred mouse strains (8–12 wks of age) were purchased from Charles River Laboratories. All mice were housed in the Duke University Animal Facility in a pathogen-free environment with 12 h light/dark cycles at 20–25°C under AALAC guidelines and in accordance with all Institutional Animal Care and Use Committee and Duke University Institutional Biosafety Committee-approved animal protocols. […]
FACS staining of single cell suspensions (≥2×10^6) was conducted using pre-mixed combinations of fluorochrome-labeled Abs and APC-conjugated B cell tetramers at empirically-determined optimal concentrations. […]

Assay [3] concerns surface Ig on BALB/c splenic B cells. In words: Microscopy of BCR cap formation (co-capping). The class given is cell-based, mouse (BALB/c). Particulars: anti-Ig stimulation, Fig. 4F. The procedure: Purified naïve splenic B cells were incubated on ice for 30 min with Alexa 488-labeled wheat germ agglutinin (Invitrogen) and 10 µg/ml R-PE-labeled goat anti-mouse IgM+IgG (H+L) F(ab)2 and APC-labeled gp41 MPER. After extensive washing, cells were stimulated for indicated times. Images were acquired with a Nikon TE2000-E2 inverted microscope employing a 40X magnification lens from a CoolSNAPPHQ2 monochrome camera.

The subject of assay [4] is protein tyrosine phosphorylation in BALB/c splenic B cells. In words: Phosphotyrosine immunoblot of stimulated splenic B cells. Format: cell-based, mouse (BALB/c). As to conditions: saturating tetramer 20 µg/10^6 cells, Fig. 8A. The procedure: To determine if gp41 MPER interactions with IgM^a could elicit the activating signals required for biological responses, we assessed BCR-proximal signaling events in BALB/c splenic B cells ligated with gp41 MPER tetramers. First, we determined the induction of protein tyrosine phosphorylation in cells incubated with saturating concentrations (20 µg/10^6 cells; see Fig. 1b) of gp41 MPER tetramer (Fig. 8A).
5×10^6 splenic BALB/c B cells were isolated by negative depletion of CD43-expressing cells with anti-mouse CD43 MACS beads (Miltenyi Biotech) to >95% purity, as assessed by flow cytometry. Purified B cells were equilibrated to 37°C in a humidified incubator and stimulated with gp41 MPER tetramers or F(ab)'2 anti-IgM (Jackson ImmunoResearch) in 5% FBS-containing DMEM media for various times. Whole cell extracts were made by lysing cell pellets in 1% NP-40 lysis buffer supplemented with PhosSTOP and complete, mini EDTA-free protease inhibitor tablets (Roche) and insoluble cellular debris was removed by centrifugation. Extracts were fractionated by reducing SDS PAGE on Novex Bis-Tris Mini gels (Invitrogen) and transferred to Invitrolon PVDF membranes (Invitrogen) using the Xcell II blot module. Primary Abs used were anti-phosphotyrosine clone 4G10 (Upstate) and anti-GAPDH (Millipore). Secondary Abs used were goat-anti-mouse IgG1 or IgG2a, both coupled to HRP (Jackson ImmunoResearch). […]
On the technique in general: In western blotting, separated proteins are transferred to a membrane and probed.

“Also recorded” adds a separate entry of the source.

Regarding “QQEKNEQELLELDKWASLWN [gp41 MPER tetramer, (residues 659–678 of the HIV-1 envelope)]”, the “MFI binding pattern (in words)” value in assay [1] (C57BL/6 B cells, Fig. 1A, 1C) was “gp41 MPER-reactive C57BL/6 B cells scattered further out across the APC channel”. Besides, in assay [1] (C57BL/6 MZ and B1a B cells, Table S2), the “gp41 MPER reactivity among B cell subsets (in words)” value is “did not reveal increased levels of MPER binding by MZ and B1a B cells”. For the same sequence, the “percentage of tetramer-reactive B cells” value in assay [1] (total splenic B cells (CD19^+), naïve C57BL/6, APC tetramer 100 ng/10^6 splenocytes, above background without tetramer, Fig. 1A representative histogram) is given as 0.1–0.3%. The “gp41 MPER binding in congenic mice (in words)” value in assay [2] is listed as “lost gp41 MPER binding”. Further, the “co-capping with surface Ig (in words)” value in assay [3] is recorded as “co-capped with surface Ig in BALB/c splenic B cells”. The “protein tyrosine phosphorylation relative to anti-IgM ligation” value in assay [4] (lower than anti-IgM ligation of equal numbers of B cells) is reported as 2- to 3 fold. Further, in assay [4] (listed as gp41 MPER tetramers), the “protein tyrosine phosphorylation (in words)” value was “induced rapid and reproducible patterns of protein phosphorylation; also recorded: only selected proteins were phosphorylated, including Syk, PI3K p110δ, PLC-γ2, and one or more of the Src kinase family members Lyn, Fyn, or Blk”.

Source of the values: publication PMC2751816, “Functional, Non-Clonal IgM^a-Restricted B Cell Receptor Interactions with the HIV-1 Envelope gp41 Membrane Proximal External Region” (PLoS ONE, 2009).
